This note sets out measurements from ChEMBL document CHEMBL3779792, “Anti-proliferative evaluation of monoterpene derivatives against leukemia” (Eur J Med Chem, 2016).

A short description of test [1]: Cytotoxicity against human NALM6 cells after 72 hrs by Cell-Titer Glo assay. In kind it is functional, cell-based. As to conditions: NALM-6, 72 h.
Test [2] is described as follows: Cytotoxicity against human SEM cells after 72 hrs by Cell-Titer Glo assay. In kind it is functional, cell-based.
Test [3] relates to HepG2. In words: Cytotoxicity against human HepG2 cells after 72 hrs by Cell-Titer Glo assay. In kind it is functional, cell-based. As to conditions: HepG2, 72 h.
In test [4] the test system is Jurkat. Put plainly: Cytotoxicity against human Jurkat cells after 72 hrs by Cell-Titer Glo assay. In kind it is functional, cell-based.
Test [5] concerns HEK293. Put plainly: Cytotoxicity against HEK293 cells after 72 hrs by Cell-Titer Glo assay. In kind it is cell-based. Conditions: Homo sapiens, HEK293, 72 h.
Test [6] relates to BJ. In words: Cytotoxicity against human BJ cells after 72 hrs by Cell-Titer Glo assay. The test is classed as cell-based.
In test [7] the test system is Raji. In words: Cytotoxicity against human Raji cells after 72 hrs by Cell-Titer Glo assay. The test is classed as functional, cell-based.

In general, EC50 refers to the concentration needed to bring the measured effect to its halfway point. Lower therefore signals a more potent agent.

On to `CCOC(=O)/C=C/c1cc(/C=C/[C@](C)(/C=C/c2ccc(OC)cc2)CCC=C(C)C)ccc1O`, for which the half-maximal effective concentration (EC50) in test [1] was more than 43.5 µM; in test [2], more than 36.6 µM; in test [3], more than 52.1 µM; in test [4], more than 49 µM; in test [5] it was more than 36.6 µM; in test [6], more than 36.6 µM. In test [7], the concentration for a half-maximal effect (EC50) was more than 26 µM.
Take `C=C[C@@](C)(/C=C/c1ccc(O)c(/C=C/c2ccc(F)cc2)c1)CCC=C(C)C`: the concentration for a half-maximal effect (EC50) in test [1] is more than 43.5 µM; in test [2], more than 36.6 µM; in test [3], more than 52.1 µM; in test [4] it was more than 49 µM; in test [5], more than 36.6 µM; in test [6], more than 36.6 µM. The same compound gave an EC50 in test [7] of more than 26 µM.
Take `C=C[C@@](C)(/C=C/c1ccc(O)cc1)CC/C=C/C(=O)c1ccccc1`: the EC50 was more than 43.5 µM in test [1]; more than 36.6 µM in test [2]; more than 52.1 µM in test [3]; more than 49 µM in test [4]; more than 36.6 µM in test [5]; more than 36.6 µM in test [6]. The same compound yielded a 50% effective concentration (EC50) in test [7] of more than 26 µM.
As to `CCOc1ccc(/C=C/[C@@](C)(/C=C/c2ccc(O)cc2)CCC=C(C)C)cc1`, the EC50 is more than 43.5 µM in test [1]; more than 36.6 µM in test [2]; more than 52.1 µM in test [3]; more than 49 µM in test [4]; more than 36.6 µM in test [5]; more than 36.6 µM in test [6]. In addition, in test [7], the EC50 was more than 26 µM.
With `C=C[C@@](C)(/C=C/c1ccc(O)cc1)CC/C=C(\C)C(=O)OCC`, the EC50 is more than 43.5 µM in test [1]; more than 36.6 µM in test [2]; more than 52.1 µM in test [3]; more than 49 µM in test [4]; more than 36.6 µM in test [5]; more than 36.6 µM in test [6]. In test [7], the half-maximal effective concentration (EC50) was more than 26 µM.
On to `C=C[C@@](C)(/C=C/c1ccc(O)c(/C=C/C(=O)OCC)c1)CCC=C(C)C`, for which the EC50 in test [1] is 20.9 µM; in test [2], more than 36.6 µM; in test [3], more than 52.1 µM; in test [4], more than 49 µM; in test [5] it was more than 36.6 µM; in test [6], more than 36.6 µM. The EC50 in test [7] is more than 26 µM.
